Where two headings read alike, the source gives them in different places.
Legend:
Format in all cases: binding
[1] = target: T1, PB1(5) (Homo sapiens, UniProt Q86U86); assay: Protein stability (thermal) shift assay, PB1(5); conditions: compound 10 μM, protein 2 μM; average of triplicate
T1 construct: made in house
Protocol: (§1) Thermal melting experiments were carried out using an Mx3005p real time PCR machine (Stratagene). Proteins were buffered in 10 mM HEPES, pH 7.5, 500 mM NaCl and assayed in a 96-well plate at a final concentration of 2 μM in 20 μL volume. Compounds were added at a final concentration of 10 or 100 μM. SYPRO Orange (Molecular Probes) was added as a fluorescence probe at a dilution of 1 in 1000. Excitation and emission filters for the SYPRO-Orange dye were set to 465 and 590 nm, respectively. The temperature was raised with a step of 3 °C per minute from 25 to 96 °C, and fluorescence readings were taken at each interval. The temperature dependence of the fluorescence during the protein denaturation process was approximated by the equation [drawing 1] where ΔuG is the difference in unfolding free energy between the folded and unfolded state, R is the gas constant, and yF and yU are the fluorescence intensity of the probe in the presence of completely folded and unfolded protein, respectively.[65] The baselines of the denatured and native states were approximated by a linear fit. The observed temperature shifts, ΔTm^obs, were recorded as the difference between the transition midpoints of sample and reference wells containing protein without ligand in the same plate and determined by nonlinear least-squares fit. Temperature shifts (ΔTm^obs) for three independent measurements per proteins/compound are summarized in Supporting Information Table S1.

[2] = target: T2, PCAF (Homo sapiens, UniProt Q92831); assay: Protein stability (thermal) shift assay, PCAF; conditions: compound 10 μM, protein 2 μM; average of triplicate
T2 construct: representative BRDs from other structural subfamilies (family I, PCAF); made in house
T2 sequence (Q92831 723-827 limits assumed): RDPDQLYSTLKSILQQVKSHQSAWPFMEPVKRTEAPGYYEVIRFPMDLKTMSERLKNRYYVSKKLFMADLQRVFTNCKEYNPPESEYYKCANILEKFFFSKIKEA
Protocol: as §1

[3] = target: T3, BRD9 (Homo sapiens, UniProt Q9H8M2); assay: Protein stability (thermal) shift assay, BRD9; conditions: compound 10 μM, protein 2 μM; average of triplicate; read-out: ΔTm Shift, BRD9
T3 construct: made in house
T3 sequence (Q9H8M2 136-240 limits assumed): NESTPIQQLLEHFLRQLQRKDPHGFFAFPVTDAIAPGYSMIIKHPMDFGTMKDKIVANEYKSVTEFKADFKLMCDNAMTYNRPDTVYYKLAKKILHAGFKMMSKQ
Protocol: as §1

[4] = target: T4, BRD3(1) (Homo sapiens, UniProt Q15059); assay: Protein stability (thermal) shift assay, BRD3(1); conditions: compound 10 μM, protein 2 μM; average of triplicate
T4 construct: Fragments were tested in a thermal shift assay against bromodomains of the BET subfamily; made in house
T4 sequence (Q15059 34-140 limits assumed): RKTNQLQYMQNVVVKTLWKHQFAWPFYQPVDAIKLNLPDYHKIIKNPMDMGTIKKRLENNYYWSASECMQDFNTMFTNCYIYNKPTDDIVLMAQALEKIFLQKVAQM
Protocol: as §1

[5] = target: T5, BRD4(1) (Homo sapiens, UniProt O60885); assay: Protein stability (thermal) shift assay, BRD4(1); conditions: compound 10 μM, protein 2 μM; average of triplicate; read-out: ΔTm Shift, BRD4(1)
T5 construct: made in house
Protocol: as §1

[6] = target: T6, BRD3(2) (Homo sapiens, UniProt Q15059); assay: Protein stability (thermal) shift assay, BRD3(2); conditions: compound 10 μM, protein 2 μM; average of triplicate
T6 construct: made in house
T6 sequence (Q15059 306-415 limits assumed): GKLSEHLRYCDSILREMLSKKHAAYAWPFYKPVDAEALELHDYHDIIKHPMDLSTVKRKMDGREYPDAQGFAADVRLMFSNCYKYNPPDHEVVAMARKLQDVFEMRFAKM
Protocol: as §1

[7] = target: T7, BRDT(1) (Homo sapiens, UniProt Q58F21); assay: Protein stability (thermal) shift assay, BRDT(1); conditions: compound 10 μM, protein 2 μM; average of triplicate
T7 construct: made in house
Protocol: as §1

[8] = target: T8, BAZ2B (Homo sapiens, UniProt Q9UIF8); assay: Protein stability (thermal) shift assay, BAZ2B; conditions: compound 10 μM, protein 2 μM; average of triplicate; read-out: ΔTm Shift, BAZ2BA
T8 construct: representative BRDs from other structural subfamilies (family I, PCAF); family III, CREBBP; family IV, BRD9; family V, BAZ2B; made in house
T8 sequence (Q9UIF8 2060-2164 limits assumed): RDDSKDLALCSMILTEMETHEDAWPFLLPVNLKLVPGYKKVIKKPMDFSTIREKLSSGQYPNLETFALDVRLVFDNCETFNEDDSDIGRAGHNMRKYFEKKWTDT
Protocol: as §1

[9] = target: T9, BRD2(2) (Homo sapiens, UniProt P25440); assay: Protein stability (thermal) shift assay, BRD2(2); conditions: compound 10 μM, protein 2 μM; average of triplicate
T9 construct: made in house
T9 sequence (P25440 344-453 limits assumed): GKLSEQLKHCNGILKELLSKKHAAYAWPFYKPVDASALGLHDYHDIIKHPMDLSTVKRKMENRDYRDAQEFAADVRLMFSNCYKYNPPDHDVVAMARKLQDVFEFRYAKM
Protocol: as §1

[10] = target: T10, BRD4(2) (Homo sapiens, UniProt O60885); assay: Protein stability (thermal) shift assay, BRD4(2); conditions: compound 10 μM, protein 2 μM; average of triplicate
T10 construct: made in house
Protocol: as §1

[11] = system: human bromodomains (panel); assay: Protein stability (thermal) shift assay, whole panel of human bromodomains; conditions: 10 μM compound
Protocol: as §1

[12] = target: T11, BRDT(2) (Homo sapiens, UniProt Q58F21); assay: Protein stability (thermal) shift assay, BRDT(2); conditions: compound 10 μM, protein 2 μM; average of triplicate; read-out: ΔTm Shift, BRDT(2)
T11 construct: made in house
Protocol: as §1

[13] = target: T12, BRD2(1) (Homo sapiens, UniProt P25440); assay: Protein stability (thermal) shift assay, BRD2(1); conditions: compound 10 μM, protein 2 μM; average of triplicate
T12 construct: Fragments were tested in a thermal shift assay against bromodomains of the BET subfamily; made in house
T12 sequence (P25440 74-180 limits assumed): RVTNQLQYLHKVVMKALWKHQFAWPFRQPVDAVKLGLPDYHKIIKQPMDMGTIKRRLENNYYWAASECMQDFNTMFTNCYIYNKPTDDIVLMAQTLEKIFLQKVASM
Protocol: as §1

[14] = target: T13, CREBBP (Homo sapiens, UniProt Q92793); assay: Protein stability (thermal) shift assay, CREBBP
T13 construct: small thermal shits (1.0–1.3 °C) for the bromodomain of CREBBP; made in house
T13 sequence (Q92793 1085-1192 limits assumed): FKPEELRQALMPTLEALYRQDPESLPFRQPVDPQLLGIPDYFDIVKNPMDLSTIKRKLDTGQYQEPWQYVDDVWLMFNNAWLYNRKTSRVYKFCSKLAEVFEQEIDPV
Protocol: as §1

[15] = target: T3, BRD9; assay: Isothermal titration calorimetry, BRD9; conditions: ITC, 50 mM HEPES pH 7.5, 150 mM NaCl, 15 °C, reverse titration, triplicate
Protocol: Experiments were carried out on an ITC200 titration microcalorimeter from MicroCal, LLC (GE Healthcare) equipped with a Washing module, with a cell volume of 0.2003 mL, and a 40 μL microsyringe. Experiments were carried out at 15 °C while stirring at 1000 rpm, in ITC buffer (50 mM HEPES, pH 7.5 (at 25 °C), 150 mM NaCl). The microsyringe was loaded with a solution of the protein sample (300−740 μM protein for BRD9 and BRD4(1), respectively, in ITC buffer) and was carefully inserted into the calorimetric cell which was filled with an amount of the ligand (0.2 mL, 20–25 μM in ITC buffer). The system was first allowed to equilibrate until the cell temperature reached 15 °C, and an additional delay of 60 s was applied. All titrations were conducted using an initial control injection of 0.3 μL followed by 38 identical injections of 1 μL with a duration of 2 s (per injection) and a spacing of 120 s between injections. The titration experiments were designed in such a fashion as to ensure complete saturation of the proteins before the final injection. The heat of dilution for the proteins was independent of their concentration and corresponded to the heat observed from the last injection, following saturation of ligand binding, thus facilitating the estimation of the baseline of each titration from the last injection. The collected data were corrected for protein heats of dilution (measured on separate experiments by titrating the proteins into ITC buffer) and deconvoluted using the MicroCal Origin software supplied with the instrument to yield enthalpies of binding (ΔH) and binding constants (KB) in the same fashion as that previously described in detail by Wiseman and co-workers.[66] Thermodynamic parameters were calculated using the basic equation of thermodynamics (ΔG = ΔH – TΔS = −RT ln KB, where ΔG, ΔH, and ΔS are the changes in free energy, enthalpy, and entropy of binding, respectively). In all cases a single binding site model was employed, supplied with the MicroCal Origin software package.

[16] = compound 10 μM, protein 2 μM, average of triplicate, read-out: ΔTm Shift, CREBBP

T1 sequence (Q86U86 653-763 limits assumed): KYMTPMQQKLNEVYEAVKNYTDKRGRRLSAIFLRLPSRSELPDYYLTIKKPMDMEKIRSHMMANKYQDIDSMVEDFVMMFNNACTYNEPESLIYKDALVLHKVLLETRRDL

## COc1ccc(-c2nc(N)nc3c2ncn3C)cc1 [Compound 3c, 2-Amino-6-(4-methoxyphenyl)-9-methylpurine]
[1]
  ΔTm at 10 µM: -0.0233 °C
[2]
  ΔTm at 10 µM: -1.1 °C
[3]
  ΔTm at 10 µM: -0.32 °C
[4]
  ΔTm at 10 µM: -1 °C
[5]
  ΔTm at 10 µM: -0.7 °C
[6]
  ΔTm at 10 µM: -0.7 °C
[7]
  ΔTm at 10 µM: -0.7 °C
[8]
  ΔTm at 10 µM: -1.3 °C
[9]
  ΔTm at 10 µM: -0.5 °C
[10]
  ΔTm at 10 µM: -3.8 °C
[11]
  binding to the bromodomain panel in the ΔTm assay (in words): very weak or no binding
[12]
  ΔTm at 10 µM: -2.5 °C
[13]
  ΔTm at 10 µM: -1 °C
[14]; [16]
  ΔTm at 10 µM: 1.1 °C

## Cn1cnc2c(-c3ccc(Oc4ccccc4)cc3)nc(N)nc21 [Compound 3e, 2-Amino-6-(4-phenoxyphenyl)-9-methylpurine]
[1]
  ΔTm at 10 µM: 0.8 °C
[2]
  ΔTm at 10 µM: 1 °C
[3]
  ΔTm at 10 µM: 0.257 °C
[4]
  ΔTm at 10 µM: 0.743 °C
[5]
  ΔTm at 10 µM: 1 °C
[6]
  ΔTm at 10 µM: 0.8 °C
[7]
  ΔTm at 10 µM: 0.6 °C
[8]
  ΔTm at 10 µM: 0.6 °C
[9]
  ΔTm at 10 µM: 0.463 °C
[10]
  ΔTm at 10 µM: 0.8 °C
[11]
  binding to the bromodomain panel in the ΔTm assay (in words): very weak or no binding
[12]
  ΔTm at 10 µM: 1.2 °C
[13]
  ΔTm at 10 µM: 0.32 °C
[14]; [16]
  ΔTm at 10 µM: 1.3 °C

## Cn1cnc2c(-c3cccc(OCc4ccc(Cl)cc4)c3)nc(N)nc21 [Compound 4e, 2-Amino-6-(3-(4′-chlorobenzyloxy)phenyl)-9-methylpurine]
[1]
  ΔTm at 10 µM: 0.5 °C
[2]
  ΔTm at 10 µM: 0.143 °C
[4]
  ΔTm at 10 µM: -0.0167 °C
[5]
  ΔTm at 10 µM: 0.177 °C
[6]
  ΔTm at 10 µM: 0.223 °C
[7]
  ΔTm at 10 µM: 0.273 °C
[8]
  ΔTm at 10 µM: 0.6 °C
[9]
  ΔTm at 10 µM: 0.6 °C
[10]
  ΔTm at 10 µM: 0.2 °C
[11]
  binding to the bromodomain panel in the ΔTm assay (in words): very weak or no binding
[12]
  ΔTm at 10 µM: -0.163 °C
[13]
  ΔTm at 10 µM: -0.15 °C
[14]; [16]
  ΔTm at 10 µM: 0.9 °C
[14]; thermal shift, 10 μM compound, 2 μM protein, read-out: ΔTm
  ΔTm at 10 µM: 1 to 1.3 °C

## COc1ccc(Br)cc1-c1nc(N)nc2c1ncn2C [Compound 8b, 2-Amino-6-(5-bromo-2-methoxyphenyl)-9-methylpurine]
[1]
  ΔTm at 10 µM: 0.7 °C
[2]
  ΔTm at 10 µM: 0.9 °C
[4]
  ΔTm at 10 µM: 0.147 °C
[5]
  ΔTm at 10 µM: 0.323 °C
[6]
  ΔTm at 10 µM: 0.467 °C
[7]
  ΔTm at 10 µM: 0.4 °C
[15]
  KD: no binding/weak
[8]
  ΔTm at 10 µM: 0.6 °C
[9]
  ΔTm at 10 µM: 0.6 °C
[10]
  ΔTm at 10 µM: 0.337 °C
[11]
  binding to the bromodomain panel in the ΔTm assay (in words): completely abolished bromodomain binding
[12]
  ΔTm at 10 µM: 0.0167 °C
[13]
  ΔTm at 10 µM: 0.163 °C
[14]; [16]
  ΔTm at 10 µM: 0.74 °C

## COc1ccc(Br)cc1-c1nc(N)nc2c1ncn2CC(C)=O [Compound 8c, 2-Amino-6-(5-bromo-2-methoxyphenyl)-9-(2-oxopropyl)-purine]
[1]
  ΔTm at 10 µM: 0.243 °C
[2]
  ΔTm at 10 µM: -0.6 °C
[3]
  ΔTm at 10 µM: -0.109 °C
[4]
  ΔTm at 10 µM: 0.275 °C
[5]
  ΔTm at 10 µM: 0.24 °C
[6]
  ΔTm at 10 µM: 0.535 °C
[7]
  ΔTm at 10 µM: 0.151 °C
[8]
  ΔTm at 10 µM: -0.06 °C
[9]
  ΔTm at 10 µM: 0.0227 °C
[10]
  ΔTm at 10 µM: -0.431 °C
[11]
  binding to the bromodomain panel in the ΔTm assay (in words): could not be tolerated
[12]
  ΔTm at 10 µM: 0.571 °C
[13]
  ΔTm at 10 µM: 0.0207 °C
[14]; [16]
  ΔTm at 10 µM: -0.07 °C

## COc1ccc(F)cc1-c1nc(O)nc2[nH]cnc12 [Compound 8d, 6-(5-Fluoro-2-methoxyphenyl)-2-hydroxy-9H-purine]
[1]
  ΔTm at 10 µM: 0.564 °C
[2]
  ΔTm at 10 µM: 0.535 °C
[3]
  ΔTm at 10 µM: -0.8 °C
[4]
  ΔTm at 10 µM: 0.9 °C
[5]
  ΔTm at 10 µM: 0.9 °C
[6]
  ΔTm at 10 µM: 0.187 °C
[7]
  ΔTm at 10 µM: 0.9 °C
[8]
  ΔTm at 10 µM: 0.277 °C
[9]
  ΔTm at 10 µM: 0.5 °C
[10]
  ΔTm at 10 µM: 0.7 °C
[11]
  binding to the bromodomain panel in the ΔTm assay (in words): lost affinity across the panel
[12]
  ΔTm at 10 µM: 0.368 °C
[13]
  ΔTm at 10 µM: 1 °C
[14]; [16]
  ΔTm at 10 µM: 0.34 °C

## COc1ccc(Br)cc1-c1nc(O)nc2[nH]cnc12 [Compound 8f, 6-(5-Bromo-2-methoxyphenyl)-2-hydroxy-9H-purine]
[1]
  ΔTm at 10 µM: 0.8 °C
[2]
  ΔTm at 10 µM: 0.378 °C
[3]
  ΔTm at 10 µM: -0.66 °C
[4]
  ΔTm at 10 µM: 0.55 °C
[5]
  ΔTm at 10 µM: 1.2 °C
[6]
  ΔTm at 10 µM: 0.853 °C
[7]
  ΔTm at 10 µM: 0.653 °C
[8]
  ΔTm at 10 µM: 0.563 °C
[9]
  ΔTm at 10 µM: 0.5 °C
[10]
  ΔTm at 10 µM: 0.7 °C
[11]
  binding to the bromodomain panel in the ΔTm assay (in words): lost affinity across the panel
[12]
  ΔTm at 10 µM: 1 °C
[13]
  ΔTm at 10 µM: 1 °C
[14]; [16]
  ΔTm at 10 µM: 0.6 °C

Reference: article PMC4403932 (Journal of Medicinal Chemistry, 2015)
